Target: T1, human KSP motor domain (KSP(367H)) (Homo sapiens, UniProt P52732)
T1 construct: were used to amplify the motor domain and the neck linker region; made in house; host or cells: E. coli BL21 (DE3), pRSETa
T1 sequence (P52732 18-359 limits assumed): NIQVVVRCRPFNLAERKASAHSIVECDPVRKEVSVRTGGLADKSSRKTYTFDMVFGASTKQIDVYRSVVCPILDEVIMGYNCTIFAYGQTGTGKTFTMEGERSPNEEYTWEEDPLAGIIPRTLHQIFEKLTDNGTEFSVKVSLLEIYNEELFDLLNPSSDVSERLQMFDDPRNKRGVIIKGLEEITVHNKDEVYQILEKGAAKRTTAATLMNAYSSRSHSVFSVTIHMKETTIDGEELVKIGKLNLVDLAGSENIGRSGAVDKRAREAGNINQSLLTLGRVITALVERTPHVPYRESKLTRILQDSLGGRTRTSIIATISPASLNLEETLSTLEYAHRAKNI
Experiment: Kinesin ATPase In Vitro Assay
Type: biochemical
Settings: KSP motor domain with microtubules, 1 mM ATP, 23° C.
Source text: I. Kinesin ATPase In Vitro Assay
Cloning and Expression of Human Poly-Histidine Tagged KSP Motor Domain (KSP(367H))
Plasmids for the expression of the human KSP motor domain construct were cloned by PCR using a pBluescript full length human KSP construct (Blangy et al., Cell, vol. 83, pp 1159-1169, 1995) as a template. The N-terminal primer 5′-[…] (SEQ.ID.NO.: 1) and the C-terminal primer 5′-[…] […] (SEQ.ID.NO.: 2) were used to amplify the motor domain and the neck linker region. The PCR products were digested with AseI and XhoI, ligated into the NdeI/XhoI digestion product of pRSETa (Invitrogen) and transformed into E. coli BL21 (DE3).
Cells were grown at 37° C. to an OD600 of 0.5. […]
The kinesin motor domain is incubated with microtubules, 1 mM ATP (1:1 MgCl2: Na-ATP), and compound at 23° C. in buffer containing 80 mM K-HEPES (pH 7.0), 1 mM EGTA, 1 mM DTT, 1 mM MgCl2, and 50 mM KCl. […] Free phosphate from the ATP hydrolysis reaction is measured via a quinaldine red/ammonium molybdate assay by adding 150 μl of quench C buffer containing a 2:1 ratio of quench A:quench B. Quench A contains 0.1 mg/ml quinaldine red and 0.14% polyvinyl alcohol; quench B contains 12.3 mM ammonium molybdate tetrahydrate in 1.15 M sulfuric acid. The reaction is incubated for 10 minutes at 23° C., and the absorbance of the phospho-molybdate complex is measured at 540 nm.

SMILES: Cc1ccc(C(=O)N(CC(F)CN)C(c2nc3cnccc3c(=O)n2Cc2ccccc2)C(C)C)cc1 [Compound I-13, N-(3-amino-2-(R,S)-fluoropropyl)-N-[1-(3-benzyl-4-oxo-3,4-dihydropyrido[3,4-d]pyrimidin-2-yl)-2-(R,S)-methylpropyl]-4-methylbenzamide]
- IC50: ≤ 50 µM

Source: patent US7632839B2, “Mitotic kinesin inhibitors” (Merck & Co. Inc., priority 2005, dated 2009)
